This is an account of results in US20080182865A1, “HISTONE DEACETYLASE INHIBITORS SENSITIZE CANCER CELLS TO EPIDERMAL GROWTH FACTOR INHIBITORS” (priority 2005, published 2008).

The test system of series [1] is NSCLC patients. The following applies: cited from earlier work; for response rate: single agent, phase I studies, chemotherapy resistant NSCLC patients.
Series [2] has as its system H3255 NSCLC cell line. Kind of series: Apoptosis and cell death (cell cycle analysis). It is filed as cell-based, human. The following applies: 10 μM. Here is the method: (§1) The effect of gefitinib on inducing apoptosis and cell death in NSCLC cell lines sensitive and resistant to gefitinib was evaluated. […].
In series [3] the test system is H322 NSCLC cell line. Put plainly: Apoptosis and cell death (cell cycle analysis). It counts as cell-based, human. The following applies: 10 μM. As to the method:
as §1

Series [4] relates to Calu3 NSCLC cell line. Put plainly: Apoptosis and cell death (cell cycle analysis). It counts as cell-based, human. The following applies: 10 μM. As to the method:
as §1

Series [5] deals with H358 NSCLC cell line. Put plainly: Apoptosis and cell death (cell cycle analysis). The following applies: 10 μM. It counts as cell-based, human. Here is the method:
as §1

In series [6] the test system is A549 NSCLC cell line. Kind of series: Apoptosis and cell death (cell cycle analysis). It is filed as cell-based, human. The following applies: 10 μM. As to the method: as §1
The test system of series [7] is H157 NSCLC cell line. Kind of series: Apoptosis and cell death (cell cycle analysis). It is filed as cell-based, human. The following applies: 10 μM. Here is the method:
(§2) The effect of gefitinib on inducing apoptosis and cell death in NSCLC cell lines sensitive and resistant to gefitinib was evaluated.

For series [8], the system named is H520 NSCLC cell line. Kind of series: Apoptosis and cell death (cell cycle analysis). It is filed as cell-based, human. The following applies: 10 μM. As to the method: as §2
Series [9] relates to H460 NSCLC cell line. Put plainly: Apoptosis and cell death (cell cycle analysis). It counts as cell-based, human. The following applies: 10 μM. As to the method: as §2
The test system of series [10] is E-cad. The following applies: lung cancer cell lines; cited from earlier work.
For series [11] the following is noted: in vivo; cited from earlier work.
Series [12] has as its system E-cad. Kind of series: E-cad expression after MS-275 in gefitinib-resistant NSCLC cell lines. It is filed as cell-based, human. The following applies: 24 hours after treatment with 4 or 10 μM.
Where [13] appears, read: unselected gefitinib treated NSCLC patients.

Turning to `C#Cc1cccc(Nc2ncnc3cc(OCCOC)c(OCCOC)cc23)c1` [erlotinib], the survival entry in series [1] (second or third line therapy, National Cancer Institute Canada trial) was “survival benefit”. In series [1], the response rate result is recorded as “about 10%”.

Take `COc1cc2ncnc(Nc3ccc(F)c(Cl)c3)c2cc1OCCCN1CCOCC1` [gefitinib]: the response rate entry in series [1] is reported as “about 10%”. Also, the objective response result in series [1] (setting [13]) was “up to 18%”. The symptomatic improvement in series [1] (setting [13]) is 40%. In addition, the “increase in apoptosis and cell death” value in [2] is listed as 35 fold; in [3], 2.3-3.4 fold; in series [4], 2.3-3.4 fold; in [5], 2.3-3.4 fold. Also, the “apoptosis and cell death” value in series [6], in [7], in series [8] and in [9] was “no apoptotic or necrotic effect” throughout.

For `CC(/C=C/C(=O)NO)=C\[C@@H](C)C(=O)c1ccc(N(C)C)cc1` [TSA, trichostatin A], in [10], the “effect on E-cad” value is listed as “activation of E-cad”.

For the molecule `Nc1ccccc1NC(=O)c1ccc(CNC(=O)OCc2cccnc2)cc1` [MS-275], in [11], the half-life (usually how long it takes for the measured level to halve) is 100 h. For the same molecule, the “persistence of changes in histone acetylation following administration” value in series [11] is “several weeks”. Moreover, the “upregulation of E-cad expression” value in series [12] (H157), in [12] (H460) and in series [12] (H520) was “Eight to twelve” in each case.
